# In publication PMC11266321 (EJNMMI Radiopharmacy and Chemistry, 2024):
# Experiments:
# [1] = biological target: T1, Adenosine A2 (Homo sapiens, UniProt P29274); assay: Radioligand binding inhibition, Adenosine A2; conditions: 10 µM; radioligand [^3H]CGS21680; mean of duplicate
# T1 construct: Sekisui Medical (contract laboratory)
# Experimental: (§1) Interaction of MMP with 28 binding sites was examined, including major classes of neurotransmitter receptor, uptake system, and ion channels (Sekisui Medical, Naka, Japan). MMP was tested in all assays at 10 µM. […] Each determination was made in duplicate.
# (§2) Test substance concentration : 10 µM, positive substance concentration : 10 µM
# (§3) Data are expressed as the mean values of duplicate samples.
# (§4) The % inhibition was calculated from “100 – binding ratio”.
# (§5) Binding ratio: [(B - N) / (B0 - N)] × 100 (%)
# (§6) B: Bound radioactivity in the presence of test substance and positive substance (individual value)
# (§7) B0: Total bound radioactivity in the absence of test substance and positive substance (mean value)
# (§8) N: Non-specific bound radioactivity (mean value)
# [2] = test system: β-Adrenergic (non-selective); assay: Radioligand binding inhibition, β-Adrenergic; conditions: 10 µM; radioligand [^3H]DHA; mean of duplicate
# Experimental: (§9) Interaction of MMP with 28 binding sites was examined, including major classes of neurotransmitter receptor, uptake system, and ion channels (Sekisui Medical, Naka, Japan). MMP was tested in all assays at 10 µM. […] 10.2.3 (GraphPad Software, San Diego, CA). Each determination was made in duplicate.
# as §2, §3, §4, §5, §6, §7, §8
# [3] = biological target: T2, Dopamine D1 (Homo sapiens, UniProt P21728); assay: Radioligand binding inhibition, Dopamine D1; conditions: 10 µM; radioligand [^3H]SCH23390; mean of duplicate
# T2 construct: Sekisui Medical (contract laboratory)
# Experimental: as §1, §2, §3, §4, §5, §6, §7, §8
# [4] = biological target: T3, Dopamine D2 (Homo sapiens, UniProt P14416); assay: Radioligand binding inhibition, Dopamine D2; conditions: 10 µM; radioligand [^3H]Spiperone; mean of duplicate
# T3 construct: Sekisui Medical (contract laboratory)
# Experimental: as §9, §2, §3, §4, §5, §6, §7, §8
# [5] = test system: GABA A (BZ central); assay: Radioligand binding inhibition, GABA A BZ central; conditions: 10 µM; radioligand [^3H]Flunitrazepam; mean of duplicate
# Experimental: as §9, §2, §3, §4, §5, §6, §7, §8
# [6] = biological target: T4, GABA B (Homo sapiens, UniProt Q9UBS5); assay: Radioligand binding inhibition, GABA B; conditions: 10 µM; radioligand [^3H]GABA; mean of duplicate
# T4 construct: Sekisui Medical (contract laboratory)
# Experimental: as §1, §2, §3, §4, §5, §6, §7, §8
# [7] = test system: Glutamate (non-selective); assay: Radioligand binding inhibition, Glutamate non-selective; conditions: 10 µM; radioligand [^3H]Glutamic acid; mean of duplicate
# Experimental: as §9, §2, §3, §4, §5, §6, §7, §8
# [8] = test system: Glycine (strychnine site); assay type: binding; conditions: 10 µM; radioligand [^3H]Strychine; mean of duplicate
# [9] = biological target: T5, Muscarinic M2 (Homo sapiens, UniProt P08172); assay: Radioligand binding inhibition, Muscarinic M2; conditions: 10 µM; radioligand [^3H]AF-DX384; mean of duplicate
# T5 construct: Sekisui Medical (contract laboratory)
# Experimental: as §1, §2, §3, §4, §5, §6, §7, §8
# [10] = test system: Nicotinic (neuronal); assay type: binding; conditions: 10 µM; radioligand [^3H]Cytisine; mean of duplicate
# [11] = biological target: T6, Serotonin 5HT2A (Homo sapiens, UniProt P28223); assay: Radioligand binding inhibition, Serotonin 5HT2A; conditions: 10 µM; radioligand [^3H]Ketanserin; mean of duplicate
# T6 construct: Sekisui Medical (contract laboratory that ran the panel)
# Experimental: as §9, §2, §3, §4, §5, §6, §7, §8
# [12] = biological target: T7, Serotonin 5HT3 (human) (Homo sapiens, UniProt P46098); assay: Radioligand binding inhibition, Serotonin 5HT3; conditions: 10 µM; radioligand [^3H]GR65630; mean of duplicate
# T7 construct: Sekisui Medical (contract laboratory that ran the panel)
# Experimental: as §9, §2, §3, §4, §5, §6, §7, §8
# [13] = test system: Sprague–Dawley rats; assay: Acute toxicity of MMP, single intraperitoneal injection; assay type: in vivo, rat
# From the text: (§10) The MMP was custom synthesized by the Nard Institute (Kobe, Japan) using methods described previously (Toyohara et al. [2020a]). All other chemical reagents were obtained from commercial sources. Male ddY mice were obtained from Japan SLC (Hamamatsu, Japan). Sprague–Dawley rats [Crl: CD(SD)] were obtained from […] (Yokohama, Japan). Animal studies were approved by the Animal Care and Use Committee of the Tokyo Metropolitan Institute for Geriatrics and Gerontology (Approval Nos. 22,015 and 23,007) and Nihon Bioresearch (Hashima, Japan; Approval Nos. 430,085 and 430,086). Acute toxicity studies were performed under the “Revisions of the Guidelines for Single and Repeated Dose Toxicity Studies” (PMDA, 1993). Ames test was performed under the “Guidance on Genotoxicity Testing and Data Interpretation for Pharmaceuticals Intended for Human Use” (PMDA, 2012).
# In Japan, the structure of nonclinical toxicology studies for PET drugs in clinical research is the responsibility of the ethics committee of each institution or the subcommittee of specialities of PET drugs. According to the method used previously for approval of PET drugs for clinical use in our institute (Toyohara et al. [2013], [2016], [2020b]; Sakata et al. [2017]), we performed single-arm acute toxicology studies of the active pharmaceutical ingredient (MMP) and final dose formulation ([^11C]MMP injection). Mutagenicity tests will also be conducted, as there are concerns about stochastic effects on genotoxicity.
# Acute toxicity studies were performed at the Hashima Research Center, Nihon Bioresearch, under non-Good Laboratory Practice (GLP) control. Acute toxicity of MMP was tested in Sprague–Dawley rats. MMP at a dose of 3.55 mg/kg body weight (0.71 mg/mL in 10 v/v% dimethyl sulfoxide containing water for injection) was injected intraperitoneally into 5-week-old rats weighing 143–172 g (male, n = 5) and 129–135 g (female, n = 5). The dose of 3.55 mg/kg body weight is the 10,000-fold equivalent of the postulated maximum administration dose (1.85 nmol/0.355 µg/kg body weight) of 740 MBq [^11C]MMP, with the lowest molar activity (Am) of 10 MBq/nmol for humans weighing 40 kg. Rats were observed frequently until 1 h and then at 2, 4, and 6 h after the injection on day 1, and thereafter once daily for 14 days for clinical signs of toxicity. Rats were weighed on days 1, 2, 4, 7, 10, and 14. At the end of the 14-day observation period, the rats were euthanized by exsanguination under isoflurane anaesthesia, and a macroscopic analysis of the autopsy samples was performed.
# [14] = test system: Salmonella typhimurium (TA98, TA100, TA1535, and TA1537); assay: Ames test (reverse bacterial mutation test), Salmonella; assay type: cell-based; conditions: with and without S9 mixture, 78.1–5000 µg/plate
# From the text: as §10
# (§11) Mutagenicity tests were performed at the Hashima Research Center, Nihon Bioresearch, under non-GLP control. MMP was tested for mutagenicity by the Ames test with four histidine-requiring strains of Salmonella typhimurium (TA98, TA100, TA1535, and TA1537) and one strain of Escherichia coli (WP2uvrA), with and without the S9 mixture, at a dose range of 78.1–5000 µg/plate according to the standard method.
# [15] = test system: Escherichia coli (WP2uvrA); assay: Ames test (reverse bacterial mutation test), E. coli; assay type: cell-based; conditions: with and without S9 mixture, 78.1–5000 µg/plate
# From the text: as §10, §11
# T3 sequence (P14416 whole entry): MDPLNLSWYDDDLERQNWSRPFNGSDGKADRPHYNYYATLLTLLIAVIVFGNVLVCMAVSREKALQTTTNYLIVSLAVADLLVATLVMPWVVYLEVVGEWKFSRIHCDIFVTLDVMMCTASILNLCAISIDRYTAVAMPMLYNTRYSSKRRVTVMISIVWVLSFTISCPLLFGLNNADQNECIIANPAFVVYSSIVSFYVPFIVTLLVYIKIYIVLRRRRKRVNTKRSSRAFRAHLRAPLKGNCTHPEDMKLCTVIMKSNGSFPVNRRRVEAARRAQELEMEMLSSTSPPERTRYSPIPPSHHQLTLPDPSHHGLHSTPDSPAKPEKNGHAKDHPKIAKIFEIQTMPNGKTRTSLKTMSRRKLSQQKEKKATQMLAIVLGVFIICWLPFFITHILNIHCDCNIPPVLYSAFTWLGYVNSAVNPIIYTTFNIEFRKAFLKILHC
# T6 sequence (P28223 whole entry): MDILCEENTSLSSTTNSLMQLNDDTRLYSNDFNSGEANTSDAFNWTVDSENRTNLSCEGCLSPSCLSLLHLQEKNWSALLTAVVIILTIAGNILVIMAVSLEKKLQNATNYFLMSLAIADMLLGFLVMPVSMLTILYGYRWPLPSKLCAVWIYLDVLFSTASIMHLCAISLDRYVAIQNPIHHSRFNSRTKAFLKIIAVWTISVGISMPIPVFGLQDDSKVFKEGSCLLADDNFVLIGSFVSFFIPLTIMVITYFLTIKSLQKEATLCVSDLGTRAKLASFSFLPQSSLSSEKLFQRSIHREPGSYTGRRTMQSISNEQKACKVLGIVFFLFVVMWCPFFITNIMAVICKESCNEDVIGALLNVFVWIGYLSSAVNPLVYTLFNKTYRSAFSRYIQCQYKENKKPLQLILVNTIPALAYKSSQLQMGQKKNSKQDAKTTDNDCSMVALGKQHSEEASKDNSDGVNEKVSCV
# T2 sequence (P21728 whole entry): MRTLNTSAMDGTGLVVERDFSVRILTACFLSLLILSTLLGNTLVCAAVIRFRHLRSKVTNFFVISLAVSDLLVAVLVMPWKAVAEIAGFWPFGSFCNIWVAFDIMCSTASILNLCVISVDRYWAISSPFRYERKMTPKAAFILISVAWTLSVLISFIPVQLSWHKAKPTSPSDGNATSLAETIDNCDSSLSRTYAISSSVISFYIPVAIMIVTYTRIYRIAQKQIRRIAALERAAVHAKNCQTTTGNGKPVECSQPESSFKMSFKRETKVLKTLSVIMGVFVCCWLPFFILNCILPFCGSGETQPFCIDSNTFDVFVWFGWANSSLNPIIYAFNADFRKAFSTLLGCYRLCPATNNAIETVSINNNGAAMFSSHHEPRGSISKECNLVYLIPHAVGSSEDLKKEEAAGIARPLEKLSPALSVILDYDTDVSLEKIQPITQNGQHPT
# T5 sequence (P08172 whole entry): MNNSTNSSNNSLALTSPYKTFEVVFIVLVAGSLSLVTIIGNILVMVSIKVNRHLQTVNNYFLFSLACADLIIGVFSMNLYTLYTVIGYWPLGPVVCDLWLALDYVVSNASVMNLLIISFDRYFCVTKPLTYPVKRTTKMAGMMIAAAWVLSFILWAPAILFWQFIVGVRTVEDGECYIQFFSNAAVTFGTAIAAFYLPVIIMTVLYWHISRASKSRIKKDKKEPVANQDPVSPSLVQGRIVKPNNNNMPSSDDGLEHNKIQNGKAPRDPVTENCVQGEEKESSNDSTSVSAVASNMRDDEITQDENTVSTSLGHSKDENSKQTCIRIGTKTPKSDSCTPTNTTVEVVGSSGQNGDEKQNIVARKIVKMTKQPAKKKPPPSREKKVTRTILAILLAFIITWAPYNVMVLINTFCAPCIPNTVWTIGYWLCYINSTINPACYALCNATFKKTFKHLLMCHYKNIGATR
# T4 sequence (Q9UBS5 15-961 limits assumed): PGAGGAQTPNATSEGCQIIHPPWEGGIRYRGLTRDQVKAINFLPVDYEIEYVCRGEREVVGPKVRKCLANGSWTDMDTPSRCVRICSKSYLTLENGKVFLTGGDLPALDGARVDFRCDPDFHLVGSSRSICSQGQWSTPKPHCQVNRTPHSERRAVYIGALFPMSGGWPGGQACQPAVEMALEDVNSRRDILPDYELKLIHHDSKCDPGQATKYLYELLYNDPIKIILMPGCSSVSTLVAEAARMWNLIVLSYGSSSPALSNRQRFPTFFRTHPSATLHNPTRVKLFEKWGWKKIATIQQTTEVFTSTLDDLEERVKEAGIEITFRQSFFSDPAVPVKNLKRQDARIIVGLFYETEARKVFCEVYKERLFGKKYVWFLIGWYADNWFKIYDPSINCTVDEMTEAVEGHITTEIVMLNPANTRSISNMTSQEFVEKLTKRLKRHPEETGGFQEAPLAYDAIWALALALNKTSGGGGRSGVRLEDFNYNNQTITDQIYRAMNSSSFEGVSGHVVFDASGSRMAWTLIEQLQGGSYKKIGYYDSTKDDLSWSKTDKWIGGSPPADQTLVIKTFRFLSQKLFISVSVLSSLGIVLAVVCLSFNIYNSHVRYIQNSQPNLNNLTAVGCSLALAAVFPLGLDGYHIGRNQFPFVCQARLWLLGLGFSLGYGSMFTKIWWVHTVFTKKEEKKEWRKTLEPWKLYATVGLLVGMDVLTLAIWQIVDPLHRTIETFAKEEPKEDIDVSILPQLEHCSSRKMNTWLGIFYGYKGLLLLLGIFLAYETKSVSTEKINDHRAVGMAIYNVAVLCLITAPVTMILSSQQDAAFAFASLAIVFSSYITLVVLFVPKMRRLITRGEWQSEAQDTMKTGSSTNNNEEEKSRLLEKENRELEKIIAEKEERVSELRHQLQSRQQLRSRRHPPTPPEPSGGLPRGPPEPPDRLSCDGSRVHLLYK
# T4 sequence (O75899 42-941 partner): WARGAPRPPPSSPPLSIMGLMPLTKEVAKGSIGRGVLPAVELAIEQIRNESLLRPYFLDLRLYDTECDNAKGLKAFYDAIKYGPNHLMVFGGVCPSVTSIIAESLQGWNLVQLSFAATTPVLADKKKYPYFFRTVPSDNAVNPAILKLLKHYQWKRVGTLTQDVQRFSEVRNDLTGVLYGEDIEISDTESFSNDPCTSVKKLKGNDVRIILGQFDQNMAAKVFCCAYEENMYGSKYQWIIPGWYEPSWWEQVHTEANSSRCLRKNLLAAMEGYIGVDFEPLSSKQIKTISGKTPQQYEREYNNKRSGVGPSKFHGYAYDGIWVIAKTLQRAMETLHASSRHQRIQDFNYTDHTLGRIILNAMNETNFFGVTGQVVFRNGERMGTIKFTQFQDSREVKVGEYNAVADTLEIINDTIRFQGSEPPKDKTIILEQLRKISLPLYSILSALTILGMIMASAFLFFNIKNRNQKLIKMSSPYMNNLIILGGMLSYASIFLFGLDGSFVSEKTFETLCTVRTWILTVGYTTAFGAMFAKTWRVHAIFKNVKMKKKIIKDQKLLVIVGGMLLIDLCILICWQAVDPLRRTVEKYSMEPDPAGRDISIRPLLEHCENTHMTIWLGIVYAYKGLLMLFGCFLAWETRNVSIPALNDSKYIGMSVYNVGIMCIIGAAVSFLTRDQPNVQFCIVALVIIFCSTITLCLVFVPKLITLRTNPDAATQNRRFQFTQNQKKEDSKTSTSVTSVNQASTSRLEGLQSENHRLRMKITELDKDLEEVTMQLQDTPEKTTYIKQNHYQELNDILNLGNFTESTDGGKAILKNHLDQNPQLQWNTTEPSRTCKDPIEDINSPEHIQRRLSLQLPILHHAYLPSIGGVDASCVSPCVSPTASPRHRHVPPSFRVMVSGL
# T7 sequence (P46098 24-478): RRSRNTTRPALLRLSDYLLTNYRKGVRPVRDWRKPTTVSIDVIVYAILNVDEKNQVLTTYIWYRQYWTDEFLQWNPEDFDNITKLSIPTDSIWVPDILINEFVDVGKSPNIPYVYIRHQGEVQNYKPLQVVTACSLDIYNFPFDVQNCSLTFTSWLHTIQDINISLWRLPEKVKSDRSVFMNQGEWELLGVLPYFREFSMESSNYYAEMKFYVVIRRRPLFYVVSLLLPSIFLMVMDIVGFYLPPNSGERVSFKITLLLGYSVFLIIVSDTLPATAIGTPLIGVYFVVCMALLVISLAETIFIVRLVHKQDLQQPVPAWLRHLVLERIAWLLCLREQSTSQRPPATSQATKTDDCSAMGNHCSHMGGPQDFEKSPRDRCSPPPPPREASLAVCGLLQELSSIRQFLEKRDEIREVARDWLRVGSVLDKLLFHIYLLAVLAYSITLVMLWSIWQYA
# T1 sequence (P29274 whole entry): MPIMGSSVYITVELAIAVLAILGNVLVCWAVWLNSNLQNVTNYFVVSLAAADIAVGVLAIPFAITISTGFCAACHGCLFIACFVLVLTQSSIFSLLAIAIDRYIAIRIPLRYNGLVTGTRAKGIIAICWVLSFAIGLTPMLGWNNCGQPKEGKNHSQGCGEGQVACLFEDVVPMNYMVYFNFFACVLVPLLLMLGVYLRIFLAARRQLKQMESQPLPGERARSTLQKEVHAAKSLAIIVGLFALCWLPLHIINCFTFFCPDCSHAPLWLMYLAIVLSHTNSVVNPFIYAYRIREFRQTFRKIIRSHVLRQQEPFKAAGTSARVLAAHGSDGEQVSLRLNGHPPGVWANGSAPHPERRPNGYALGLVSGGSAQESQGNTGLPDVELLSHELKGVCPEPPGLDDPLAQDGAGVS
structure (smiles),measurement,setting,value
"Cc1ccc(CC(C)NC(C)C)cc1 (centres unmarked) [MMP, N-isopropyl-p-methylamphetamine]",Inhibition ratio (%),[1],1.64%
same,Inhibition ratio (%),[2],32.80%
same,Inhibition ratio (%),[3],6.90%
same,Inhibition ratio (%),[4],6.04%
same,Inhibition ratio (%),[5],2.17%
same,Inhibition ratio (%),[6],1.59%
same,Inhibition ratio (%),[7],0.00%
same,Inhibition ratio (%),[8],4.11%
same,Inhibition ratio (%),[9],23.38%
same,Inhibition ratio (%),[10],0.00%
same,Inhibition ratio (%),[11],24.12%
same,Inhibition ratio (%),[12],0.91%
same,NOAEL as multiple of postulated maximum administration dose,"[13]; 740 MBq, Am 10 MBq/nmol, human body weight 40 kg","1,600 times"
same,acute toxicity,"[13]; rats, 3.55 mg/kg body weight (10,000 times potential maximum clinical dose)",No acute toxicity
same,body weight gain,"[13]; rats, single i.p. 3.55 mg/kg",normal gains in body weight
same,post-mortem macroscopic examination,"[13]; rats, single i.p. 3.55 mg/kg",no abnormalities
same,mortality,"[13]; rats, single i.p. 3.55 mg/kg, 14-day observation",no mortality
same,clinical signs of toxicity,"[13]; rats, single i.p. 3.55 mg/kg, 15-day period",no clinical signs of toxicity
same,mutagenic activity,[14],no mutagenic activity
same,mutagenic activity,[15],no mutagenic activity
